Data from patent US5821239A (priority 1996, dated 1998).
Where two headings read alike, the source gives them in different places.

Columns and labels:
[1] = biological target: Brain AChE (acetylcholinesterase, rat striatum) (Rattus norvegicus, UniProt P37136); assay: biochemical; design: species or system rat (male Wistar)
[2] = tested on: Scopolamine Induced Memory Deficit (mice); conditions: mouse, in vivo, sc

Sequence of Brain AChE (acetylcholinesterase, rat striatum) (P37136 32-614): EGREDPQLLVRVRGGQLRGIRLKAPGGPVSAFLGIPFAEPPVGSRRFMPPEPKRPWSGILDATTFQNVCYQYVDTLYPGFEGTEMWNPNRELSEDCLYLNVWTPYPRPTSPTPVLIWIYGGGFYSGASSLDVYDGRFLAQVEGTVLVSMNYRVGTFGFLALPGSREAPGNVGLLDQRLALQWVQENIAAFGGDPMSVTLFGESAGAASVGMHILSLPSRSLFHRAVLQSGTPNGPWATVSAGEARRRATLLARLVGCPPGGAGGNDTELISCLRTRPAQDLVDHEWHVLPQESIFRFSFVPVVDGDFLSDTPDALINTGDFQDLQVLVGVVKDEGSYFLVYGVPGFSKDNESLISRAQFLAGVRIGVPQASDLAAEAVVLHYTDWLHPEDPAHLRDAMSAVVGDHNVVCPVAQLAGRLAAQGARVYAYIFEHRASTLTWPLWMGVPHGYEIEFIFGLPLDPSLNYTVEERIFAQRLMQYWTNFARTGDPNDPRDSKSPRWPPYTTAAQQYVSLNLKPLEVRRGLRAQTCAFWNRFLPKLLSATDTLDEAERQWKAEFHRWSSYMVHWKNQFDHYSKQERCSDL

Compound | IC50 [1] [µM] | % of Animals with Scopolamine Induced Memory Deficit Reversal ([2]; 0.1 mg/kg) [%] | % of Animals with Scopolamine Induced Memory Deficit Reversal ([2]; 0.3 mg/kg) [%]
CCNC(=O)Oc1cnccc1N=CN(C)C [4-[[(Dimethylamino)methylene]amino]-3-pyridinol ethylcarbamate] | 9.37 | 20.0 | 21.4
CNC(=O)Oc1cnccc1N=CN(C)C [4-[[(Dimethylamino)methylene]amino]-3-pyridinol methylcarbamate] | 12.6 |  | 
